How the values were obtained:
[1] = tested on: dSR-CI; test: Competitive inhibition of 125I-AcLDL degradation activity by CHO[dSR-CI]-2.6a cells; format: cell-based, Drosophila melanogaster
Experimental: (§1) Scavenger receptor activities at 37° C. were measured by ligand binding, uptake and degradation assays as described by Krieger, 1983; Freeman et al., 1991). Although binding and uptake at 37° C. were determined separately using dextran-sulfate to free surface bound lipoproteins from the cells as described for LDL receptor assays by Goldstein et al., 1983; Basu et al., 1983 Science 219, 871-873), this method for separating bound from internalized ligand for ^125I-AcLDL and scavenger receptors has not been independently validated. Accordingly, the values for binding and uptake were combined and are presented as binding plus uptake observed after a 5 hour incubation and are expressed as ng of ^125I-AcLDL protein per 5 hr per mg cell protein. Degradation activity is expressed as ng of ^125I-AcLDL protein degraded in 5 hours per mg of cell protein. The specific, high affinity values presented represent the differences between the results obtained in the presence (single determinations) and absence (duplicate determinations) of excess unlabeled competing ligand (75 to 200 μg/ml of M-BSA). Cell surface 4° C. binding was assayed using either method A or method B as indicated. In method A, cells were prechilled on ice for 15 min, re-fed with ^125I-AcLDL in ice-cold medium B supplemented with 10% (v/v) fetal bovine serum, with or without 75-200 μg/ml unlabeled M-BSA, and incubated 2 hr at 4° C. on a shaker. Cells were then washed rapidly three times with Tris wash buffer (50 mM Tris-HCl, 0.15M NaCl, pH 7.4) containing 2 mg/ml BSA, followed by two 5 min washes, and two rapid washes with Tris wash buffer without BSA. The cells were solubilized in 1 ml of 0.1N NaOH for 20 min at room temperature on a shaker, 30 μl were removed for protein determination, and the radioactivity in the remainder was determined using a LKB gamma counter. Method B differed from method A in that the cells were prechilled for 45 minutes, the medium contained 10 mM HEPES and 5% (v/v) human lipoprotein-deficient serum rather than fetal bovine serum, and the cell-associated radioactivity released by treatment with dextran sulfate was measured as described by Krieger, 1983; Freeman et al., 1991).
Competitive binding of AcLDL was performed to more accurately define the specificity of the AcLDL binding.

[2] = molecular target: T1, CD36 (Homo sapiens, UniProt P16671); test: 125I-AcLDL degradation at 37° C. in COS cells transfected with CD36, competition; format: cell-based; details: 5 hr, FIG. 4B: M-BSA 4, AcLDL 500, fucoidin 200, poly I 500, poly G 500, ReLPS 250 μg/ml
T1 construct: expressed in transfected cells; host or cells: COS cells (transient)
Experimental: as §1
COS cells were transfected on day 1 with a plasmid encoding CD36. On day 2 the transfected cells were set in 6-well dishes at 1×10^6 cells/well in medium A plus 1 mM sodium butyrate. On day 3, 125I-AcLDL binding at 4° C. was measured. […] On day 3, degradation of ^125I-AcLDL (5 μg/ml) was measured after a 5 hr incubation at 37° C. in the absence (duplicate determinations) or presence (duplicate determinations) of the indicated competitors. […]

[3] = molecular target: T2, haSR-BI (Cricetulus griseus, UniProt Q60417); test: 125I-AcLDL binding at 4° C. to haSR-BI in transfected COS or ldlA cells; parameters: species or system hamster; details: ldlA[haSR-BI] cells, 125I-AcLDL 5 μg/ml, FIG. 3B: M-BSA 10, poly G 500, fucoidin 200, carrageenan 200, LDL 500 μg/ml
T2 construct: expressed in transfected cells
T2 sequence (Q60417 1-509): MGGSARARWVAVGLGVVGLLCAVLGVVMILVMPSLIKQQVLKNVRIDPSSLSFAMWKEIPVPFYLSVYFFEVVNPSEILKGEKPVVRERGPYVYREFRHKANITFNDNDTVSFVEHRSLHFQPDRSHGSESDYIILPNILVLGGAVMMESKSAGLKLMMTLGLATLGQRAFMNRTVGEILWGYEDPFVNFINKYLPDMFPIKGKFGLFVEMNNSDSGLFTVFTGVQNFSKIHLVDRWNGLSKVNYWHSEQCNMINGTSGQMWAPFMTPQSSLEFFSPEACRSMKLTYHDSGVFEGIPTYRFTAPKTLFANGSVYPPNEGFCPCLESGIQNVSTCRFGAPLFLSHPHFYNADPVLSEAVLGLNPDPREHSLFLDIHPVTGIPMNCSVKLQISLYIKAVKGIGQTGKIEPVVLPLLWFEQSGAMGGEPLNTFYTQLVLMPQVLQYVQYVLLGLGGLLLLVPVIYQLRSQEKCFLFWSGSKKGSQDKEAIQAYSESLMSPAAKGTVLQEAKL
Experimental: as §1
HDL and VLDL binding to SR-BI and CD36 were conducted as described for LDL and modified LDL.
(§2) To measure binding of AcLDL, on day 1, COS cells were transfected with the expression vector for the hamster scavenger receptor type BI (haSR-BI). On day 2 the transfected COS cells were plated in 6-well dishes (1×10^6 cells/well in medium A plus 1 mM sodium butyrate). […] On day 3 the binding of ^125I-AcLDL (5 μg/ml) at 4° C. in the absence or presence of the indicated competitors was measured using Method A. The values shown in the Figures represent the averages of duplicate determinations. […]

[4] = tested on: Var-261 cells; test: 125I-AcLDL binding at 4° C. to Var-261 cells, competition; parameters: species or system Chinese hamster; details: 125I-AcLDL 5 μg/ml, FIG. 3B: M-BSA 10, poly G 500, fucoidin 200, carrageenan 200, LDL 500 μg/ml
Experimental: as §1, §2

[5] = tested on: Var-261 cells; test: 125I-AcLDL degradation and binding plus uptake at 37° C. in Var-261 cells; format: cell-based, Chinese hamster; details: for competition for 125I-AcLDL degradation: 125I-AcLDL 5 μg/ml, 5 hr
[6] = molecular target: T3, murine type II macrophage scavenger receptor (mSR-AII) (Mus musculus, UniProt P30204); test: 125I-AcLDL degradation at 37° C. in COS cells expressing murine scavenger receptor type II; format: cell-based; details: for competition for 125I-AcLDL degradation: COS[mSR-AII] cells, 125I-AcLDL 5 μg/ml, 5 hr, 37° C.
T3 construct: expressed in transfected cells; host or cells: COS cells (transient)
T3 sequence (P30204 1-354 isoform P30204-2): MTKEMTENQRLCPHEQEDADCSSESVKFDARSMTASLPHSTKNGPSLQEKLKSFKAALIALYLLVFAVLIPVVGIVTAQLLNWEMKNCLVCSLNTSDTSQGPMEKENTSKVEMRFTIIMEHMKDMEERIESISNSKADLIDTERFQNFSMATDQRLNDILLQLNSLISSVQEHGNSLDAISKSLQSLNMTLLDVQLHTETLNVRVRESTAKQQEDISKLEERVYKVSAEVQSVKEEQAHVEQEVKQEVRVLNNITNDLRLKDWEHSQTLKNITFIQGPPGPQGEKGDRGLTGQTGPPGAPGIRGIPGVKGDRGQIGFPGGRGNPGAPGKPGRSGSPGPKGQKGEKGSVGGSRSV
Experimental: as §1, with “In method A, cells were prechilled on ice for 15 min, re-fed with ^125I-AcLDL in ice-cold medium B supplemented with 10% (v/v) fetal bovine serum, with or without 75-200 μg/ml unlabeled M-BSA, and incubated 2 hr at 4° C. on a shaker. Cells were then washed rapidly three times with Tris wash buffer (50 mM Tris-HCl, 0.15M NaCl, pH 7.4) containing 2 mg/ml BSA, followed by two 5 min washes, and two rapid washes with Tris wash buffer without BSA.” left out
COS cells were transfected on day 1 with murine scavenger receptor type II. […] On day 3, ^125I-AcLDL (5 μg/ml) in medium B plus 10% fetal bovine serum was added to the cells and degradation was measured after a 5 hr incubation at 37° C. in the absence (duplicate determinations) or presence (duplicate determinations) of the indicated amounts of polyanions. […]

[7] = molecular target: T2, haSR-BI; test: [3H]-liposome binding at 4° C. to haSR-BI in ldlA[haSR-BI] cells; parameters: species or system hamster; details: EDTA 1-10 mM
Experimental: Unilamellar liposomes were made by extrusion through policarbonate membranes (Szoka et al., 1980). Phospholipid liposomes were prepared containing the indicated phospholipid, phosphatidycholine, and free cholesterol in a molar ratio of 1:1:1. The lipids were mixed in chloroform and dried by rotary evaporation for 30 min. For preparation of radiolabeled liposomes, 50-75 μCi of [^3H]DPPC(62 Ci/mmol) were added to the lipid mixtures before drying. The dried lipids were resuspended in 150 mM NaCl, 0.1 mM EDTA, 10 mM HEPES, pH 7.5 (Buffer A). […] The final phospholipid concentration was determined by the method of Bartlett (1959). The average diameters of unlabeled liposomes, which were determined from either two or three independent preparations using light scattering with a Coulter N4 plus light scatterer apparatus (Coulter Electronics Inc., Hialeah, Fla.), were: PS, 105; PC, 114: PA, 125; PE, 129; P1, 113; and SM, 131 nm. The number of phospholipid molecules/PS liposome was calculated as follows. […]
Ligand Binding Assays. […] The cells were then solubilized with […], and radioactivity and protein determinations were made as described above. […] The binding values are expressed as nanograms of bound ^125I-labeled protein or ng of total phospholipids from ^3H-labeled liposomes/milligram of cell protein. […]

T1 sequence (P16671 whole entry): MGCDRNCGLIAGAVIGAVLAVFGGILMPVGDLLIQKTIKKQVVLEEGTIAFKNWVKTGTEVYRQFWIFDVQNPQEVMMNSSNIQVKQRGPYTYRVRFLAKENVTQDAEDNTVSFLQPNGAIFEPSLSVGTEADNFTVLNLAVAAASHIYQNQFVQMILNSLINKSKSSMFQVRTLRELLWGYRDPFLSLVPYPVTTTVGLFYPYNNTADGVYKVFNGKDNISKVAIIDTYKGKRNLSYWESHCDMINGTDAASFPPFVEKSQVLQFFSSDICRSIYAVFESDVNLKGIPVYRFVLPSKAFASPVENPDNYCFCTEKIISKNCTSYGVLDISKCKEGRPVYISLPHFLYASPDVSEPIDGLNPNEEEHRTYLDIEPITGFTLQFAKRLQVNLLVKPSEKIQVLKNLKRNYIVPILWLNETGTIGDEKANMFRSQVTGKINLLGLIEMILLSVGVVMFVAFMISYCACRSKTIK

| Compound | inhibition of receptor activity, 125I-AcLDL degradation [2] | inhibition of 125I-AcLDL binding [3] | Degradation (% No Competitor) ([1]; competitor 400 μg/ml) | inhibition of 125I-AcLDL binding [4] | competition for 125I-AcLDL degradation ([5]; 37° C.) | further results |
| --- | --- | --- | --- | --- | --- | --- |
| dextran sulfate | – | – | – | – | – | Degradation (% No Competitor) ([1]; competitor concentration not given): 4.2 % No Competitor |
| Poly D-glutamic acid | – | – | 34 | – | – | – |
| Dextran | – | – | 100 | – | – | – |
| O=C(O)CN(CCN(CC(=O)O)CC(=O)O)CC(=O)O [EDTA] | – | – | – | – | – | effect on PS liposome binding [7]: not inhibited |
| CCN(CC)CCCC(C)Nc1ccnc2cc(Cl)ccc12 (stereo not drawn) [chloroquine] | – | – | – | – | – | effect on 125I-AcLDL binding plus uptake ([5]; 37° C.): not; effect on 125I-AcLDL degradation ([5]; 37° C.): inhibited |
| polyriboinosinic acid [poly I] | not | – | 2.7 | – | – | inhibition of 125I-AcLDL degradation ([5]; competitor at 400 μg/ml): 34%; inhibition of 125I-AcLDL degradation ([6]; class A scavenger receptors, competitor at 2.5 μg/ml): greater than 50% |

Further lines, with some results ahead:

| inhibition of receptor activity, 125I-AcLDL degradation [2] | inhibition of 125I-AcLDL binding [3] | Compound | Degradation (% No Competitor) ([1]; competitor 400 μg/ml) | inhibition of 125I-AcLDL binding [4] | competition for 125I-AcLDL degradation ([5]; 37° C.) | further results |
| --- | --- | --- | --- | --- | --- | --- |
| inhibited | inhibited | M-BSA: maleylated BSA | 6.7 | inhibited | inhibited | – |
| not | not inhibited | Polyriboguanylic acid [poly G] | – | competitors | effective competitors | competition for 125I-AcLDL degradation [6]: effective competitors |
| – | not inhibited | carrageenan | – | competitors | – | – |
| not | not inhibited | fucoidin | – | competitors | effective competitors | competition for 125I-AcLDL degradation [6]: effective competitors |
